The values that follow come from publication PMC8396575, ““Molecular Masks” for ACE2 to Effectively and Safely Block SARS-CoV-2 Virus Entry” (International Journal of Molecular Sciences, 2021).

Bridge positions count the residues as written; N and C are the ends. Square brackets hold non-standard residues; d marks the D form. Peptide text beside a SMILES is read from it. I, II: the chains in the order shown. N(4-MeOBn)Gly = COc1ccc(CNCC(=O)O)cc1; N((CH2)3OiPr)Gly = CC(C)OCCCNCC(=O)O; Nrpe = C[C@@H](NCC(=O)O)c1ccccc1; NAllylGly = C=CCNCC(=O)O; Nleu = CC(C)CNCC(=O)O; Nme = COCCNCC(=O)O

Data set [1] deals with total ACE2 protein in Caco-2 cells. Nature of the data set: Western blot, total ACE2, Caco-2. Format: cell-based, human. The following applies: various concentrations, 48 h. As for the experimental part: Cells were lysed in RIPA buffer (1% NP-40, 0.5% sodium deoxycholate, 0.1% SDS in PBS). Complete protease inhibitor cocktail (Roche, St. Louis, MO, USA) was added to lysis buffer before use. Protein concentration was determined by Bio-Rad DC protein assay (Bio-Rad, Hercules, CA, USA). Protein samples were subjected to SDS-PAGE and transferred to nitrocellulose membrane. The membrane was blocked in 5% non-fat milk in PBST overnight and incubated with primary antibody and subsequently with appropriate horse radish peroxidase-conjugated secondary antibody. Signals of targeted proteins were detected by the Immun-Star HRP peroxide Luminol/Enhancer (Bio-Rad, Hercules, CA, USA) and recorded on ChemiDoc Touch Imaging System (Bio-Rad, Hercules, CA, USA). Anti-hACE2 (human ACE2 receptor) antibody was purchased from R&D system, Inc. (Cat# AF933, Minneapolis, MN, USA). Full western blot data are given in Supplementary Material (Figures S14–S16).

Another data set relates to NCI-H1299 cells. Nature of the data set: WST-1 cell viability assay, NCI-H1299. The data set is classed as cell-based, human. The following applies: WST-1, 48 h, concentrations tested up to 20 µM; n = 3–5/group. An excerpt:
(§1) We assessed whether ACE2P1D1 and ACE2P2D1 are toxic to the cells. We seeded and treated increasing concentrations of ACE2P1D1 and ACE2P2D1 on NCI-H1299, Caco-2, and MCF-7 cells. The standard WST-1 assay was used to measure the cell viability. As shown in Figure 5c–e, treatment with both compounds had no effects on cell viability in NCI-H1299, MCF-7, and Caco-2 cells.
In general terms: Formazan colour is commonly taken as a measure of viable cells.

The test system of data set [2] is ACE2 cell surface expression in Caco-2 cells. As to the kind of experiment: Flow cytometry, ACE2 cell surface expression, Caco-2. Format: cell-based, human. The following applies: 10 µM, 48 h. Here is the method:
To evaluate the impact of compounds to ACE2 upon binding in cell lines, MCF-7, NCI-H1299, and Caco-2 cell cultures reaching 70% confluences were incubated with 10 μM ACE2P1D1 and ACE2P2D1 for 48 h and then harvested using trypsin. Briefly, cells were centrifuged and washed with FACS buffer and then fixed by methanol on ice. Cells were suspended with a primary antibody-staining mixture using 0.5 μg (Human/Mouse/Rat/Hamster ACE-2 Antibody, R&D Systems, Inc., Cat# AF933, Minneapolis, MN, USA) per sample. Samples were incubated at room temperature for 1 h followed by washing and secondary antibody (mouse anti-goat IgG-FITC, Santa Cruz, Cat# sc-2356, Dallas, TX, USA) staining. Samples were incubated for another hour and washed before being analyzed using Accuri™ C6 (BD Biosciences, Franklin Lakes, NJ, USA). Data analysis was conducted by FlowJo™ v10 software (v10.5.2, FlowJo. LLC, Ashland, OR, USA).
In general terms: Flow cytometry measures light scatter and fluorescence of single cells or particles in a stream.

For another data set, the system named is Caco-2 cells. Nature of the data set: WST-1 cell viability assay, Caco-2. The data set is classed as cell-based, human. The following applies: WST-1, 48 h, concentrations tested up to 20 µM; n = 3–5/group.
Text: as §1

The test system of another data set is MCF-7 cells. Nature of the data set: WST-1 cell viability assay, MCF-7. The data set is classed as cell-based, human. The following applies: WST-1, 48 h, concentrations tested up to 20 µM; n = 3–5/group.
Text: as §1

Data set [3] concerns ACE2 activity in Caco-2 cells. As to the kind of experiment: ACE2 enzyme activity in Caco-2 cells. Format: cell-based, human. The following applies: 40 µg cell lysate, cOmplete protease inhibitor 40 µL/mL, 10 µM captopril; fluorescence; n = 3/group. As for the experimental part: ACE2 is an enzyme which lowers blood pressure by catalyzing the hydrolysis of angiotensin II [49]. […] To determine if ACE2P1D1 and ACE2P2D1 interfere with the normal functions of ACE2, we examined the effects of the peptoids on ACE2 enzyme activity. ACE2 enzyme activity was measured by fluorescence generated from the cleavage of the substrate Mca-YVADAPK(Dnp) by ACE2. […] We then examined the effects of ACE2P1D1 and ACE2P2D1 on ACE2 activity in cultured cells. For measuring ACE2 activity in cells, cell homogenates were used. To prevent hydrolysis of the substrate by a range of nonmetalloprotease enzymes from the cells, cOmplete™ Protease Inhibitor Cocktail (Roche/Sigma—40 µL/mL) was added to the cell homogenates. To eliminate the effects of ACE on the substrate, ACE inhibitor captopril (10 µM) was added to the assay.
ACE2 enzyme activity was determined using recombinant ACE2 protein (R&D system Inc., Cat# 933-ZN-010, Minneapolis, MN, USA) alone or in the presence of ACE2P1D1 and ACE2P2D1 in different concentrations (0.1 µM, 1 µM, and 10 µM), and Mc[…] (Dnp)-OH, Fluorogenic Peptide Substrate VI from R&D System, Inc. (Cat# ES007, Minneapolis, MN, USA). […] ACE2 enzyme activity was measured every 20 min by fluorescence plate reader (BioTek Cytation 5 cell Imaging Multi-Mode Reader, Winooski, VT, USA) with excitation at 320 nm and emission at 405 nm.

The target in data set [4] is T1, recombinant human angiotensin-converting enzyme 2 (ACE2) (His-tag) (Homo sapiens, UniProt Q9BYF1).
T1 construct: purchased RayBiotech 230-30165-100
As to the kind of experiment: ELISA-like quantitative ACE2-peptoid binding assay. Here is the method: We first validated the OBTC screening results by resynthesizing ACE2P1 and ACE2P2 on tentagel beads and incubated them with red cells (ACE2 positive) and green cells (ACE2 negative) separately as well as 1:1 mixture of these cells. […] Next, we incubated recombinant ACE2 protein with the ACE2P1 or ACE2P2 conjugated tentagel beads and performed in vitro pull-down assay. […] To confirm a direct interaction between the peptoids and ACE2, we performed a thermal shift assay using recombinant ACE2 protein. The Applied Biosystems™ Protein Thermal Shift™ assay measures protein thermal stability using a fluorescent protein-binding dye. […] The protein is mixed with the dye and heated; as it unfolds or melts, hydrophobic parts of the protein are exposed and bind to the dye, resulting in fluorescence emission detected by the qPCR system. Binding of a ligand to the protein changes the stability of the protein, resulting in a change in fluorescence intensity. […] Finally, we performed a previously published ELISA-like quantitative binding assay to quantify the peptoid-ACE2 binding event. The recombinant His-tagged ACE2 protein was attached to the Nickel-coated 96-well plate. […] After washing, the remaining compounds were probed with streptavidin-HRP system followed by detecting luminescence signals using a spectrophotometer. […]

T1 sequence (Q9BYF1 18-805): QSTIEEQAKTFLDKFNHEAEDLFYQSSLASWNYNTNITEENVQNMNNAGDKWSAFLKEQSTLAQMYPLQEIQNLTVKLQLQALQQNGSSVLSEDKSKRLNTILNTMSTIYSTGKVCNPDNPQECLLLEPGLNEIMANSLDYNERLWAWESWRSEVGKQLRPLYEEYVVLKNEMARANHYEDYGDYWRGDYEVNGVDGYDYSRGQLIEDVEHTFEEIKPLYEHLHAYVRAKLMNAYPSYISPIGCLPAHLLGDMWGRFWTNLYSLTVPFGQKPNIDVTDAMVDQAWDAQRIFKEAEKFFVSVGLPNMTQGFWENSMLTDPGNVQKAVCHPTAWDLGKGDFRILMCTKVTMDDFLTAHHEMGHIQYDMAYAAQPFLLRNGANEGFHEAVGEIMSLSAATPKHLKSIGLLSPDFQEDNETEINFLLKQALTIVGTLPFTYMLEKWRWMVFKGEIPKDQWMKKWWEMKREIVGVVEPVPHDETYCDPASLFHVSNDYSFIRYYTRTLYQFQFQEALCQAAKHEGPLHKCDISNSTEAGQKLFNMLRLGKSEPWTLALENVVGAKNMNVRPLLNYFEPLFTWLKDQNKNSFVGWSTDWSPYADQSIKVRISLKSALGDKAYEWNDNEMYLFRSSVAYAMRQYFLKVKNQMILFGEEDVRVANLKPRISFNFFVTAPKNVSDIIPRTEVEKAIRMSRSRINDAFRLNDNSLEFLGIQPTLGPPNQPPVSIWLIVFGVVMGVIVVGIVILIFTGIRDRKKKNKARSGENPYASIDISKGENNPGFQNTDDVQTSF

As to `COCCN(CC(=O)N[C@@H](CCCCN)C(=O)N[C@@H](CCSC)C(=O)NCCCC[C@H](NC(=O)[C@H](CCSC)NC(=O)[C@H](CCCCN)NC(=O)CN(CCOC)C(=O)CN(CC(C)C)C(=O)CN(CC(C)C)C(=O)CN(CCCOC(C)C)C(=O)CN(Cc1ccc(OC)cc1)C(=O)CNCc1ccc(OC)cc1)C(N)=O)C(=O)CN(CC(C)C)C(=O)CN(CC(C)C)C(=O)CN(CCCOC(C)C)C(=O)CN(Cc1ccc(OC)cc1)C(=O)CNCc1ccc(OC)cc1` [ACE2P2D1] (I: H-[N(4-MeOBn)Gly][N(4-MeOBn)Gly][N((CH2)3OiPr)Gly][Nleu][Nleu][Nme]KMK-NH2 / II: H-[N(4-MeOBn)Gly][N(4-MeOBn)Gly][N((CH2)3OiPr)Gly][Nleu][Nleu][Nme]KM; amide I:9-II:C), in data set [1], the “total ACE2 protein level, Caco-2” value was “total ACE2 protein levels did not change”. Also, the “effect on cell viability, NCI-H1299” value with NCI-H1299 cells is “had no effect on the cell viability”. Further, in data set [2], the “cell surface expression of ACE2, Caco-2” value is reported as “did not decrease the cell surface expression of ACE2”. The “effect on cell viability, Caco-2” value in the data set on Caco-2 cells is reported as “had no effect on the cell viability”. Further, in the data set on MCF-7 cells, the “effect on cell viability, MCF-7” value is “had no effect on the cell viability”. Further, in data set [3], the “effect on ACE2 activity in cultured Caco-2 cells” value is recorded as “had no effects on ACE2 activity”. Further, in data set [4], the dissociation constant Kd stood at 0.11 µM.
For `C=CCN(CC(=O)N(CC(=O)N[C@@H](CCCCN)C(=O)N[C@@H](CCSC)C(=O)NCCCC[C@H](NC(=O)[C@H](CCSC)NC(=O)[C@H](CCCCN)NC(=O)CN(C(=O)CN(CC=C)C(=O)CN(Cc1ccc(OC)cc1)C(=O)CN(C(=O)CN(CCOC)C(=O)CNCC(C)C)[C@H](C)c1ccccc1)[C@H](C)c1ccccc1)C(N)=O)[C@H](C)c1ccccc1)C(=O)CN(Cc1ccc(OC)cc1)C(=O)CN(C(=O)CN(CCOC)C(=O)CNCC(C)C)[C@H](C)c1ccccc1` [ACE2P1D1] (I: H-[Nleu][Nme][Nrpe][N(4-MeOBn)Gly][NAllylGly][Nrpe]KMK-NH2 / II: H-[Nleu][Nme][Nrpe][N(4-MeOBn)Gly][NAllylGly][Nrpe]KM; amide I:9-II:C), the “total ACE2 protein level, Caco-2” value in data set [1] is given as “total ACE2 protein levels did not change”. In the data set on NCI-H1299 cells, the “effect on cell viability, NCI-H1299” value is “had no effect on the cell viability”. For the same molecule, the “cell surface expression of ACE2, Caco-2” value in data set [2] was “did not decrease the cell surface expression of ACE2”. The “effect on cell viability, Caco-2” value in the data set with Caco-2 cells is listed as “had no effect on the cell viability”. Further, the “effect on cell viability, MCF-7” value with MCF-7 cells was “had no effect on the cell viability”. In addition, the “effect on ACE2 activity in cultured Caco-2 cells” value in data set [3] is “had no effects on ACE2 activity”. Also, the dissociation constant Kd in data set [4] is 0.06 µM.

Usually Kd stands for a measure of binding affinity in units of concentration.
